Results taken from US7172907B2, “Cyanine dye labelling reagents with meso-substitution” (GE Healthcare Bio-Sciences Corp., priority 2003, dated 2007).

Tests used:
[1] = background values for known Cy dyes, X = Y = C(CH3)2; cited from earlier work
[2] = Photostability: ethanolic solution left in the room light, fading of the dyes; assay type: physicochemical
[3] = Hydrolytic stability in de-ionized water, fading of the dyes; assay type: physicochemical
[4] = Fluorescence quantum yield relative to Cy5; assay type: physicochemical; details: expressed as fraction of that of Cy5
Procedure: (§1) 2-{N-Acetyl-N-phenyl}aminoethenyl-1,3,3-trimethylindoleriine and 2-{N-acetyl-N-phenyl}aminoethenyl-1-{6-carboxypentyl}-3,3-trimethylindolenine (20 mmoles of each) and 10 equivalents of cyanoacetic acid in pyridine (100 ml) were heated under reflux under Argon for 4 hours. At the end of the reaction, the pyridine was evaporated and the product purified by repeated HPLC purification followed by silica gel column chromatography with increasing amounts of MeOH in ethyl acetate as the eluant to give a pure product, 2-{5-[1-(5-carboxypentyl)-3,3-dimethyl-1,3-dihydro-2H-indol-2-ylidene]-3-cyano-1,3-pentadienyl}-1,3,3-trimethyl-3H-indolinium (meso-cyano Cy5). Absorption maximum (MeOH): 610 nm: Emission maximum (MeOH): 628 nm; Quantum yield: 0.65 that of Cy5.

[5] = Absorption and emission spectra of meso-cyano Cy5 in MeOH; assay type: physicochemical
Procedure: as §1

| Compound | Abs max [1] [nm] | Em max [1] [nm] | Photostability: half-life (t1/2) for fading of the dyes [2] [h] | Hydrolytic stability: half-life (t1/2) for fading of the dyes ([3]; pH=6.85) [h] | Quantum yield [4] | half-life ([2]; read-out: Photostability: half-life (t1/2) for fading of the dyes) [h] | half-life ([3]; pH=6.85, read-out: Hydrolytic stability: half-life (t1/2) for fading of the dyes) [h] | Absorption maximum [5] [nm] | Emission maximum [5] [nm] |
| --- | --- | --- | --- | --- | --- | --- | --- | --- | --- |
| CCN1C(=CC=CC2=[N+](CCCCCC(=O)O)c3ccc(S(=O)(=O)O)cc3C2(C)C)C(C)(C)c2cc(S(=O)(=O)[O-])ccc21 [Cy3] | 550 | 570 | – | – | – | – | – | – | – |
| CCN1/C(=C/C=C/C=C/C2=[N+](CCCCCC(=O)O)c3ccc(S(=O)(=O)O)cc3C2(C)C)C(C)(C)c2cc(S(=O)(=O)[O-])ccc21 [Cy5] | 649 | 670 | 22 | 56 | – | – | – | – | – |
| CN1/C(=C/C=C(C#N)/C=C/C2=[N+](CCCCCC(=O)O)c3ccccc3C2(C)C)C(C)(C)c2ccccc21 [meso-cyano Cy5, 2-{5-[1-(5-Carboxypentyl)-3,3-dimethyl-1,3-dihydro-2H-indol-2-ylidene]-3-cyano-1,3-pentadienyl}-1,3,3-trimethyl-3H-indolinium] | – | – | – | – | 0.65 | > 75 | > 150 | 610 | 628 |
| Cy5.5 | 675 | 694 | – | – | – | – | – | – | – |
